Experimental data from EP0521435A2, “Method to promote the production of secondary metabolites in plant cell cultures” (B.A.T. Cigarettenfabriken GmbH, priority 1991, dated 1993).

What was measured:
[1] = test system: Kultur von Rubia tinctorum; assay: Elicitation of anthraquinones (alizarin) in cell culture; assay type: cell-based; conditions: added after 4 days, harvested after 7 days; concentration not given
Description: (§1) B. Glukoseester, Aminosäure- oder andere Kohlenhydrataddukte eingesetzt werden.
Eine Kultur von Rubia tinctorum wird in LS-Medium kultiviert. Nach 4 Tagen werden der Kultur 2',3'-Dihydrojasmonat zugesetzt. Nach 7 Tagen wird die Kultur geerntet und der Anthrachinon-Gehalt bestimmt. Der Zuwachs an Alizarin beträgt das ca. 40-fache gegenüber der Kontrolle.

[2] = test system: Zellkultur von Lactuca sativa; assay: Elicitation of lettucenin A in cell culture; assay type: cell-based; conditions: 250 µmol/l; extraction 6 days later; not detectable in control culture
Protocol: as §1
Eine Zellkultur von Lactuca sativa wird 24 Stunden nach dem Überimpfen in LS-Medium mit 3-Hydroxyjasmonsäure zu einer Endkonzentration von 250 µmol/l versetzt. Die Extraktion mit Methanol erfolgt 6 Tage später. Die elicitierten Kulturen enthalten das Custonolid Lettucenin A in einer Konzentration von ca. 30 mg/I. In den Extrakten einer Kontrollkultur ist Lettucenin A nicht nachweisbar.

[3] = test system: Kultur von Rauwolfia serpentina; assay: Elicitation of vallesiachotamine in cell culture; assay type: cell-based; conditions: 200 umol/1, cultivated 4 further days
Protocol: as §1
Eine Kultur von Rauwolfia serpentina, in LS-Medium 3 Tage gewachsen, wird zu einer Endkonzentration von 200 umol/1 mit Jasmonsäure versetzt und 4 Tage weiterkultiviert. Der methanolische Extrakt des Gewebes enthält eine 8-fache Vallesiacotamin-Konzentration gegenüber der Kontrolle. Der Absolutwert ist 70 mg/I Medium.

Berberinbrückenenzym = assay: mRNA hybridisation with a probe against the berberine bridge enzyme after elicitation; assay type: cell-based, Eschscholtzia californica; conditions: elicited as in Beispiel 1
Description: Zellkulturen von Eschscholtzia californica werden - wie in Beispiel 1 beschrieben - mit Methyljasmonat elicitiert. Nach Zugabe des Jasmonats werden im Abstand von je 1 Stunde Aliquots entnommen und die m-RNA extrahiert. Die m-RNA wird mit einer Probe gegen das Berberinbrückenenzym, ein Schlüsselenzym des Benzophenanthridin-Stoffwechsels, hybridisiert. […] Die so induzierte m-RNA ist ein Indiz für die Genaktivierung der an der Elicitierung und an der Alkaloidbiosynthese beteiligten Enzyme. Die Verbindungen der Formel (I) sind demnach in der Lage, reprimierte Sekundärstoffgene zu aktivieren.

[4] = test system: Zellsuspensionskultur von Eschscholtzia californica; conditions: 20 umol/1; cultivated 5 further days; per litre culture medium
Description: (§3) Die Zellkultur wird in Flüssigmedium kultiviert und kann entweder in entsprechenden Kulturgefäßen oder in Fermentern herangezogen werden. Nach einer Anwachsphase von 2 bis 10 Tagen wird dem Medium eine in Ethanol gelöste Verbindung der Formel (I) zugesetzt. […] Nach Bildung der maximalen Konzentration an Sekundärstoffen wird der Versuch durch Separierung der Zellen vom Medium abgebrochen und die Sekundärstoffe werden anschließend nach bekannten Verfahren aus dem Zellüberstand oder den Zellen isoliert.
(§4) Einer Zellsuspensionskultur von Eschscholtzia californica, die in 1 Liter LS-Nährmedium (Linsmaier, E. M., Skoog, F., Physiol. Plant 18, 100 (1965)) herangewachsen ist und deren Frischgewicht 200 g beträgt, wird Methyljasmonat zu einer Endkonzentration von 20 umol/1 zugesetzt. Die Kultur wird für 5 Tage weiterkultiviert, anschließend mit 200 ml salzsaurem Ethanol (1,7 ml HCI konz./1 I Ethanol) 2 Stunden lang bei 60 ° C extrahiert.

[5] = test system: Zellsuspensionskultur von Eschscholtzia californica; assay: cells; conditions: 120 h, read-out: Steigerung der Benzophenanthridin-Produktion
Description: as §3, §4

Kultur von Glycine max = assay: cells; conditions: 144 h, read-out: höhere Konzentration an Daidcein- und Genistein-Glycosiden
Protocol: Die Zellkultur wird in Flüssigmedium kultiviert und kann entweder in entsprechenden Kulturgefäßen oder in Fermentern herangezogen werden. Nach einer Anwachsphase von 2 bis 10 Tagen wird dem Medium eine in Ethanol gelöste Verbindung der Formel (I) zugesetzt.
Eine Kultur von Glycine max wird mit 330 g Frischgewicht in 1 Liter 4x-Medium (Gamborg, Miller, Ojima, Experiment Research 50, 151 - 158 (1968)), 2,4-D 2 mg/I, NES 0,5 mg/I, IES 0,5 mg/I, Kinetin 0,2 mg/I versetzt. 3 Tage später wird Methyljasmonat zu einer Endkonzentration von 250 umol/1 zugesetzt. Nach einer Kultivierungsperiode von 6 Tagen wird die Kultur mit Methanol extrahiert (50 g Frischgewicht/200 ml Methanol; 2 Stunden, 60 ° C).

[6] = test system: Kultur von Ruta chalepensis; assay: Elicitation of rutacridone in cell culture; assay type: cell-based; conditions: 40 µmol/l; cultivated 5 further days; methanol extract
Description: as §1
Eine 2 Tage alte Kultur von Ruta chalepensis (4x-Medium) wird mit Jasmonatglukosid zu einer Endkonzentration von 40 µmol/l versetzt, für 5 Tage weiterkultiviert und mit Methanol extrahiert. Der Extrakt zeigt einen 18-fachen Rutacridon-Gehalt gegenüber der Kontrolle.

Digitalis purpurea = assay type: cell-based; conditions: concentration of elicitor not given
Description: (§2) Weitere Beispiele sind: Digitalis purpurea: Cardenoloide, die unter dem Einfluß von Jasmonat gegenüber der Kontrolle eine 2-fach gesteigerte Konzentration erreichen; Linum hirsutum: Lignane, die 2,5-fach gesteigert sind; Gossypium herbaceum: Gossipol, 10-fach gesteigert gegenüber der Kontrolle; isolierte Wurzelkulturen von Hyoscyamus alba: Hyoscyamin/Scopolamin: stark parasympatholytische bzw. zentraldämpfende, medizinisch wertvolle Alkaloide, 12-fache Steigerung gegenüber der Kontrolle; Zellkulturen von Colchicum autumnale, die das Gichtmittel Colchicin produzieren, 8-fache Steigerung gegenüber der Kontrolle; Zellkulturen von Cephaelis ipecacuanha, die das arzneilich genutzte Emetin produzieren, das bei Keuchhusten und Bronchialasthma sowie als erbrechungsförderndes Mittel Anwendung findet, 7,5-fache Steigerung gegenüber der Kontrolle; Zellkulturen von Cinchona succirubra bzw. Cinchona ledgeriana, die medizinisch als Antiarhythmikum bzw. als Chemotherapeutikum (Malaria) eingesetzt werden, Steigerung 14-fach; Zellkulturen von Rauwolfia serpentina, die die therapeutisch genutzten Indolalkaloide Reserpin (blutdrucksenkend, sedierend), Serpentin (blutdrucksenkend), Ajmalin (bei Herzrhythmusstörungen), Ajmalicin (Gehirn-durchblutungsfördernd), Yohimbin (durchblutungsfördernd) produzieren.
as §1

Gossypium herbaceum = assay type: cell-based; conditions: concentration of elicitor not given
Description: as §2, §1

[7] = test system: Zellkulturen von Cephaelis ipecacuanha; assay type: cell-based; conditions: concentration of elicitor not given
Description: as §2, §1

[8] = test system: Zellkulturen von Colchicum autumnale; assay type: cell-based; conditions: concentration of elicitor not given
Description: as §2, §1

[9] = test system: isolierte Wurzelkulturen von Hyoscyamus alba; assay type: cell-based; conditions: isolated root cultures; concentration of elicitor not given
Description: as §2, §1

Linum hirsutum = assay: Elicitation of lignans; assay type: cell-based; conditions: versus control; concentration of elicitor not given
Description: as §2, §1

[10] = test system: Zellkulturen von Cinchona succirubra bzw. Cinchona ledgeriana; assay: Elicitation of secondary metabolites in Cinchona cell cultures; assay type: cell-based; conditions: product not named in b24 (Chinidin und Chinin according to b23); concentration of elicitor not given
Description: Beispiele für Sekundärstoffe, die durch das erfindungsgemäße Verfahren produziert werden können, sind: Atropin und Scopolamin, isoliert aus Hyoscyamus- und Datura-Wurzelkulturen, Colchicin aus Herbstzeitlose, Emetin aus Zell- und Wurzelkulturen der Brechwurz, Codein und Morphin aus Zellkulturen des Schlafmohns, Chinidin und Chinin aus Zellkulturen von Cinchona succirubra bzw. Cinchona ledgeriana, Ajmalin, Rescinamin, Reserpin aus Zellkulturen von Rauwolfia-Arten. Diese Substanzen werden arzneilich eingesetzt. Insbesondere sind also die Stoffgruppen der Indolalkaloide, der Isochinolinalkaloide, der Lignane und Isoprenoide zu nennen. […]

[11] = test system: Rauwolfia canescens Zellkultur; assay: Induction of new indole alkaloids in cell culture; assay type: cell-based; conditions: 200 µmol/l; cultivated 6 further days; number of new alkaloids
Description: as §1
Einer 4 Tage alten Rauwolfia canescens Zellkultur (LS-Medium) wird 3-Hydroxyjasmonat zu einer Endkonzentration von 200 µmol/l zugesetzt. Die Kultur wird 6 Tage weiterkultiviert und mit einer entsprechenden Kontrolle, der kein 3-Hydroxyjasmonat zugesetzt wurde, verglichen. Dabei zeigt sich, daß in dieser Zellkultur 6 Indolalkaloide gebildet werden, die in der Kontrollkultur nicht vorkommen.

2',3'-Dihydrojasmonat
Zuwachs an Alizarin gegenüber der Kontrolle [1]: ca. 40 -fach

3-Hydroxyjasmonsäure
Lettucenin A Konzentration [2]: ca. 30 mg/I

CCC=CCC1C(=O)CCC1CC(=O)O (stereo not drawn) [Jasmonsäure]
Vallesiacotamin-Konzentration, Absolutwert [3]: 70 mg/I Medium | fold induction at 200 µM ([3]; Rauvolfia serpentina, 96 h, methanolic extract of the tissue, read-out: Vallesiacotamin-Konzentration gegenüber der Kontrolle): 8

CCC=CCC1C(=O)CCC1CC(=O)OC (stereo not drawn) [Methyljasmonat]
spezifische m-RNA-Menge (Berberinbrückenenzym; in 2 hours after addition, versus control culture): verdoppelt | spezifische m-RNA-Menge (Berberinbrückenenzym; in 10 hours after addition, then decreases again): weiter ansteigt | Gesamtausbeute der Kultur, Benzophenanthridine pro Liter Kulturmedium [4]: 300 mg | fold induction at 20 µM [5]: 15 | fold induction at 250 µM (Kultur von Glycine max): ~30

Jasmonatglukosid
Rutacridon-Gehalt gegenüber der Kontrolle [6]: 18 -fach

CC/C=C\C[C@H]1C(=O)CC[C@@H]1CC(=O)O [Jasmonat]
Cardenoloide, gesteigerte Konzentration gegenüber der Kontrolle (Digitalis purpurea): 2 -fach | Gossipol gesteigert gegenüber der Kontrolle (Gossypium herbaceum): 10 -fach | Emetin Steigerung gegenüber der Kontrolle [7]: 7,5 -fach | Colchicin Steigerung gegenüber der Kontrolle [8]: 8 -fach | Hyoscyamin/Scopolamin Steigerung gegenüber der Kontrolle [9]: 12 -fach | Lignane gesteigert (Linum hirsutum): 2,5 -fach | Steigerung [10]: 14 -fach

3-Hydroxyjasmonat
Indolalkaloide gebildet, die in der Kontrollkultur nicht vorkommen [11]: 6
